# Laboratory results reported in US6319929A, “Suksdorfin analogs, compositions thereof, and methods for making and using thereof” (priority 1998, dated 2001).
# Several values for one entry are separate records, joined by “and”; a condition that tells them apart may be missing. Identical values can stand only once. Like-named read-outs stand apart in the source and are kept apart here.
# Columns and labels:
# [1] = test system: HIV-1 replication in H9 cells; assay: HIV-1 replication inhibition in acutely infected H9 lymphocytes (p24 antigen ELISA); type: cell-based, HIV-1 (IIIB strain)
# In short: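 H9 T cells exposed to HIV-1 IIIB (0.01-0.1 TCID50/cell) for 1 h at 37° C, washed, then grown with compound for 3-4 days at 37° C. Toxicity taken from cell counts of uninfected cultures and virus from p24 ELISA of supernatants. EC50 and IC50 were read graphically from concentration versus percent inhibition plots.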
# [2] = test system: chronically HIV-1 infected U1 cells; assay: Virus expression from chronically HIV-1 infected monocytic cell line U1 (p24 antigen ELISA); type: cell-based
# Protocol: (§1) Effects of suksdorfin analogs on Chronically HIV-1 infected cells. The experimental design is as follows: The phorbol ester, PMA (10^-8 M) and various concentrations of suksdorfin were either added or not added to both the chronically HIV-1 infected T cell line (ACH-2) and to the chronically HIV-1 infected monocytic cell line (U1). Cell-free supernatant was collected 72 hours post culture for p24 antigen ELISA.
# Compound 16 was also assayed on ACH-2 (chronically HIV-1 infected T cell line). U1 cells are also chronically HIV-1 infected cells but they are from the monocytic cell line, U937. The data presented in Table 8 indicates the following points:
# (§2) Chronically HIV-1 infected cell lines. HIV-1 chronically infected T cell line, ACH-2^12, and HIV-1 chronically infected promonocytic cell line, U1 13, were continuously maintained in RPMI 1640 with 10% fetal calf serum (FCS). For experiments, the cell lines were only used in the […] of growth. Cells (0.5×10^6 cells/well) and either various concentrations of suksdorfin or medium alone were added to 24-well plates in the presence or absence of PMA (10^-8 M). After 72 hours at 37° C. and 5% CO2, an aliquot of the cell-free supernatants were collected and analyzed for p24 antigen by ELISA (see below for details of p24 antigen ELISA).
# [3] = test system: chronically HIV-1 infected ACH-2 cells; assay: Virus expression from chronically HIV-1 infected T cell line ACH-2 (p24 antigen ELISA); type: cell-based
# Protocol: as §1
# Results (Table 11) from adding compound 16 to the chronically HIV-infected T cell line, ACH-2, according to methods in above examples. ACH-2 are a chronically HIV-1 infected T cell line. It was derived from A3.01 cells which is a subclone of the CEM cell line. The data below indicates the following points:
# as §2
# [4] = test system: HIV-1 replication in U937 cells; assay: HIV-1 replication in acutely infected promonocytic U937 cells; type: cell-based, HIV-1 (IIIB); settings: for EC50: Human immunodeficiency virus 1, U-937
# Protocol: Suksdorfin was also tested on an acute HIV-1 infection of the promonocytic cell line, U937. This was done again to determine drug specificity but this time on a monocytic cell line.
# As part of efforts to biologically characterize 16 the monocytic cell line, U937 and peripheral blood mononuclear cells (PBMCs) were separately infected with HIV-1 and then had various concentrations of the analog added for 4 days of culture.
# HIV Growth Inhibition Assay: The T cell line, H9, and the promonocytic cell line, U937, were maintained separately in continuous culture with complete medium (RPMI 1640 and […] fetal calf serum (FCS) at 5% CO2 and 37° C. Cell lines were used in experiments only when in log phase of growth; whereas, uninfected peripheral blood mononuclear cells (PBMCs) were first stimulated with PHA (1 μg/ml) for 3 days. All cell targets were incubated with HIV-1 (IIIB isolate, TCID50 10 ^4 IU/mi, at a multiplicity of infection of 0.1-0.01 IU/cell) for 1 hour at 37° C. and 5% CO2. The cell lines and PBMCs were washed thoroughly to remove unabsorbed virions and resuspended at 4×10^5 cells/ml in complete medium or complete medium with 10% v/v interleukin […] IL-2, respectively. Aliquots ( ml) were placed in wells of 24-well culture plates containing an equal volume of test compound (diluted in the appropriate culture medium). After incubation for 4 days at 37° C., cell density of uninfected cultures was determined by counting cells in a Coulter counter to assess toxicity of the test compound. A p24 antigen ELISA assay was used to determine the level of virus released in the medium of the HIV-infected cultures. The p24 antigen assay uses a HIV-1 anti-p24 specific monoclonal antibody as the capture antibody coated-on 96-well plates. Following a sample incubation period, rabbit serum containing antibodies for HIV-1 p24 is used to tag any p24 "captured" onto the microtiter well surface. Peroxidase conjugated goat anti-rabbit serum is then used to tag HIV-1 p24 specific rabbit antibodies which have complexed with captured p24. […] The cut-off for the p24 ELISA assay is 12. pg/ml. P24 in the culture medium was quantitated against a standard curve containing known amounts of p24. The effective (EC50) and inhibitory (IC50) concentrations (for anti-HIV activity and cytotoxicity, respectively) were determined graphically. Both the EC50 and IC50 values were calculated by plotting drug concentration versus percent inhibition, and then identifying a 50% inhibition value from the graph.
compound,measurement,setting,value
"Cc1cn([C@H]2C[C@H](N=[N+]=[N-])[C@@H](CO)O2)c(=O)[nH]c1=O [AZT, azidothymidine, reference compound]",EC50,"[1]; Human immunodeficiency virus 1, H9, Table 3, H9 lymphocytes",40 nM
same,EC50,"[1]; Human immunodeficiency virus 1, H9, Table 17, acutely infected H9 lymphocytes",150 nM
same,Therapeutic Index,"[1]; Table 3, H9 lymphocytes","50,000"
same,Therapeutic Index,"[1]; Table 17, H9","12,500"
same,P24,"[2]; U1, +PMA, 0.01 μg/ml",9626 pg/mL
same,P24,"[2]; U1, +PMA, 0.1 μg/ml",4363 pg/mL
same,P24,"[2]; U1, +PMA, 1 μg/ml",7898 pg/mL
same,P24,"[2]; U1, +PMA, 10 μg/ml",8653 pg/mL
same,P24,"[2]; U1, -PMA, 0.01 μg/ml",50 pg/mL
same,P24,"[2]; U1, -PMA, 0.1 μg/ml",53 pg/mL
same,P24,"[2]; U1, -PMA, 1 μg/ml",72 pg/mL
same,P24,"[2]; U1, -PMA, 10 μg/ml",97 pg/mL
same,P24,"[3]; Table 11 (ACH-2), +PMA, 0.01 μg/ml","21,373 pg/ml"
same,P24,"[3]; Table 11 (ACH-2), +PMA, 0.1 μg/ml","10,621 pg/ml"
same,P24,"[3]; Table 11 (ACH-2), +PMA, 1 μg/ml","17,088 pg/ml"
same,P24,"[3]; Table 11 (ACH-2), +PMA, 10 μg/ml","16,584 pg/ml"
same,P24,"[3]; Table 11 (ACH-2), -PMA, 0.01 μg/ml",796 pg/mL
same,P24,"[3]; Table 11 (ACH-2), -PMA, 0.1 μg/ml",942 pg/mL
same,P24,"[3]; Table 11 (ACH-2), -PMA, 1 μg/ml",904 pg/mL
same,P24,"[3]; Table 11 (ACH-2), -PMA, 10 μg/ml",939 pg/mL
"CC1(C)Oc2ccc3ccc(=O)oc3c2[C@@H](OC(=O)[C@@]23CC[C@@](C)(C(=O)O2)C3(C)C)[C@H]1OC(=O)[C@@]12CC[C@@](C)(C(=O)O1)C2(C)C [Compound 16, 3',4'-Di-O-(-)-Camphanoyl-(+)-cis-Khellactone]",EC50,[4]; U937 cell line,1.28 ng/mL
same,EC50,[4]; U937 cells,2.1 nM
same,suppression of acute HIV-1 replication in U937 cells (in words),[4]; U937 cells,suppression detected
same,suppression,"[1]; 0.000256 μg/ml, separate assays, H9",35%
same,inhibition at 0.000256 µg/mL,"[1]; Human immunodeficiency virus 1, H9, 0.000256 μg/ml, separate assays, H9, read-out: suppression",44%
same,EC50,"[1]; Human immunodeficiency virus 1, H9, H9, text to Table 7, read-out: EC50",≥ 0.000256 µg/mL and 0.41 nM
same,EC50,"[1]; Human immunodeficiency virus 1, H9, H9 lymphocytes, Table 3, read-out: ED^50 (the source's name)",≥ 0.41 nM
same,EC50,"[1]; Human immunodeficiency virus 1, H9, Table 3, H9 lymphocytes, read-out: EC50",0.41 nM
same,EC50,"[1]; Human immunodeficiency virus 1, H9, Table 7, read-out: EC5",0.000256 µg/mL and 0.41 nM
same,EC50,"[1]; Human immunodeficiency virus 1, H9, Table 17, acutely infected H9 lymphocytes, read-out: EC50",0.41 nM
same,anti-HIV activity in H9 cells (in words),[1]; acutely infected H9 cells,potent anti-HIV activity
same,P24,"[2]; U1, +PMA, 0.0000102 μg/ml",7328 pg/mL
same,P24,"[2]; U1, +PMA, 0.0000512 μg/ml",8710 pg/mL
same,P24,"[2]; U1, +PMA, 0.00025 μg/ml",7757 pg/mL
same,P24,"[2]; U1, +PMA, 0.00128 μg/ml",6335 pg/mL
same,P24,"[2]; U1, +PMA, 0.0064 μg/ml",6419 pg/mL
same,P24,"[2]; U1, +PMA, 0.032 μg/ml",8090 pg/mL
same,P24,"[2]; U1, +PMA, 0.16 μg/ml",7162 pg/mL
same,P24,"[2]; U1, +PMA, 0.8 μg/ml",8390 pg/mL
same,P24,"[2]; U1, +PMA, 4 μg/ml",8742 pg/mL
same,P24,"[2]; U1, +PMA, 20 μg/ml",9530 pg/mL
same,P24,"[2]; U1, -PMA, 0.0000102 μg/ml",52 pg/mL
same,P24,"[2]; U1, -PMA, 0.0000512 μg/ml",56 pg/mL
same,P24,"[2]; U1, -PMA, 0.00025 μg/ml",78 pg/mL
same,P24,"[2]; U1, -PMA, 0.00128 μg/ml",99 pg/mL
same,P24,"[2]; U1, -PMA, 0.0064 μg/ml",90 pg/mL
same,P24,"[2]; U1, -PMA, 0.032 μg/ml",101 pg/mL
same,P24,"[2]; U1, -PMA, 0.16 μg/ml",76 pg/mL
same,P24,"[2]; U1, -PMA, 0.8 μg/ml",88 pg/mL
same,P24,"[2]; U1, -PMA, 4 μg/ml",41 pg/mL
same,P24,"[2]; U1, -PMA, 20 μg/ml",95 pg/mL
same,effect on virus expression of PMA-stimulated U1 cells (in words),[2]; with PMA,did not suppress virus replication
same,induction of virus expression from U1 cells (in words),[2]; without PMA,did not induce the U1 cells to make virus
same,P24,"[3]; ACH-2, +PMA, 0.0000102 μg/ml","17,938 pg/ml"
same,P24,"[3]; ACH-2, +PMA, 0.0000512 μg/ml","16,079 pg/ml"
same,P24,"[3]; ACH-2, +PMA, 0.00025 μg/ml","22,756 pg/ml"
same,P24,"[3]; ACH-2, +PMA, 0.00128 μg/ml","22,344 pg/ml"
same,P24,"[3]; ACH-2, +PMA, 0.032 μg/ml","24,650 pg/ml"
same,P24,"[3]; ACH-2, +PMA, 0.064 μg/ml [0.010 μM] (so in the source)","24,364 pg/ml"
same,P24,"[3]; ACH-2, +PMA, 0.16 μg/ml","21,865 pg/ml"
same,P24,"[3]; ACH-2, +PMA, 0.8 μg/ml","20,183 pg/ml"
same,P24,"[3]; ACH-2, +PMA, 4 μg/ml","23,547 pg/ml"
same,P24,"[3]; ACH-2, +PMA, 20 μg/ml","24,858 pg/ml"
same,P24,"[3]; ACH-2, -PMA, 0.0000102 μg/ml",666 pg/mL
same,P24,"[3]; ACH-2, -PMA, 0.0000512 μg/ml",659 pg/mL
same,P24,"[3]; ACH-2, -PMA, 0.00025 μg/ml",777 pg/mL
same,P24,"[3]; ACH-2, -PMA, 0.00128 μg/ml",811 pg/mL
same,P24,"[3]; ACH-2, -PMA, 0.032 μg/ml",1319 pg/mL
same,P24,"[3]; ACH-2, -PMA, 0.064 μg/ml [0.010 μM] (so in the source)",955 pg/mL
same,P24,"[3]; ACH-2, -PMA, 0.16 μg/ml",1174 pg/mL
same,P24,"[3]; ACH-2, -PMA, 0.8 μg/ml",976 pg/mL
same,P24,"[3]; ACH-2, -PMA, 4 μg/ml",1194 pg/mL
same,P24,"[3]; ACH-2, -PMA, 20 μg/ml",1509 pg/mL
same,effect on virus expression of PMA-stimulated ACH-2 cells (in words),[3]; with PMA,did not suppress virus replication
same,induction of virus expression from ACH-2 cells (in words),[3]; without PMA,did not induce the ACH-2 cells to make virus
